Experimental data reported in patent US20190282673A1, “STAPHTAME ACTIVITY ON BIOFILMS” (priority 2016, published 2019).
Several values for one entry are separate records, joined by “and”; a condition that tells them apart may be missing. Identical values can stand only once. Like-named read-outs stand apart in the source and are kept apart here.

Legend:
S. aureus = assay: MIC and checkerboard synergy (broth microdilution) on planktonic cells; assay type: cell-based, Staphylococcus aureus; details: for MIC: Staphylococcus aureus
Description: MIC was determined using a modified Clinical and Laboratory Standards Institute (CLSI) broth microdilution procedure described earlier in Vipra, et al. (2012) “Antistaphylococcal activity of bacteriophage derived chimeric protein P128” BMC Microbiol. 12:41-50; and Clinical and Laboratory Standards Institute (2012) “Methods for Dilution Antimicrobial Susceptibility Tests for Bacteria That Grow Aerobically; Approved Standard” CLSI document M07-A9.9 ed. Wayne, Pa. USA. In order to determine effects of combinations of P128 with antibiotics, combinations of various dilutions of P128 and a second drug were tested for growth inhibition using a microdilution checkerboard technique. See Lu, et al. (2013) “In vitro activity of sodium new houttuyfonate alone and in combination with oxacillin or netilmicin against methicillin-resistant Staphylococcus aureus” PLoS One 8:e68053. Briefly, S. aureus culture at a final cell number of 5×10^5 CFU/mL was added to wells of 96-well microtiter plates (precoated with 0.5% BSA), containing two-fold dilutions of P128 and the second drug in cation adjusted Mueller Hinton Broth (CAMHB). The plates were incubated at 37° C. for 24 h and the individual MICs and the combination MICs were read. The fractional inhibitory concentration index (FICI) was determined using the following equation: FICI=(MIC of drug A in the combination/MIC of drug A alone)+(MIC of drug B in the combination/MIC of drug B alone). The combination was considered to be synergistic when the FICI was ≤0.5; additive when FICI was 0.5-1.0; indifferent when FICI was 1-4 and antagonistic when FICI≥4. The experiments were performed in triplicate and repeated twice.
In order to find out whether P128 can act in a synergistic manner with commonly used antibiotics, MIC based growth inhibition assays were performed. MIC based synergy was studied by checkerboard method by determining the FIC index using the method of Lu, et at (2013) “In vitro activity of sodium new houttuyfonate alone and in combination with oxacillin or netilmicin against methicillin-resistant Staphylococcus aureus” PLoS One 8:e68053. […] Similarly.
Bacterial cultures at a final cell number of 5×10^5 CFU/mL was added to wells of 96-well microtiter plates (precoated with 0.5% BSA), containing two-fold dilutions of P128 and the second drug in cation adjusted Mueller Hinton Broth (CAMHB). The plates were incubated at 37° C. for 24 h and the individual MICs and the combination MICs were read. The fractional inhibitory concentration index (FICI) was determined using the following equation: FICI=(MIC of drug A in the combination/MIC of drug A alone)+(MIC of drug B in the combination/MIC of drug B alone). The combination was considered to be synergistic when the FICI was ≤0.5; additive when FICI was 0.5-1.0; indifferent when FICI was 1-4 and antagonistic when FICI≥4.

[1] = system: S. aureus BK18 and B9377 persisters; assay: P128 and antibiotic activity on persisters (CFU); assay type: cell-based, Staphylococcus aureus; details: for CFU/mL after treatment of persisters: 1×MIC, P128 1 h, antibiotics 6 h
Description: Persisters were generated as above were treated with P128 and antibiotics (Ref: Gutiérrez, et al. (2014) Effective Removal of Staphylococcal Biofilms by the Endolysin LysH5 PLoS One 9(9): e107307).
To 450 μL aliquots, P128. Daptomycin and Vancomycin (in saline) were added (individually) each at 1×MIC Conc., and another 450 μL aliquot was taken as control. The persister samples treated with P128 were incubated for 1 h, 37° C., and 200 rpm and those treated with antibiotics were incubated for 6 h, 37° C., and 200 rpm. After incubation samples were serially log diluted and plated.

S. epidermidis biofilms = assay: MBIC and checkerboard synergy on preformed biofilm (MTT assay); assay type: cell-based, Staphylococcus epidermidis; details: for MBIC (drug alone): 6 hr treatment; for MBIC: S. epidermidis ATCC 12228 biofilm
Description: The ability of P128 to inhibit growth of S. aureus in a preformed biofilm was measured by determining minimum biofilm inhibition concentration (MBIC), defined as minimum concentration showing growth inhibition in a MTT based assay. Since P128 kills Staphylococcus cultures rapidly, it was expected to show a rapid effect on biofilms as well. Paul, et al. (2011) “A novel bacteriophage Tail-Associated Muralytic Enzyme (TAME) from Phage K and its development into a potent antistaphylococcal protein” BMC Microbiol. 11:226.
Culture conditions were optimized for reproducibly obtaining a robust biofilm of S. epidermidis in 96 well microtitre plates. For this purpose, biofilms were generated in microtiter plates and the surface-adhered cultures remaining after washing off the planktonic cells were analyzed at the end of 72 h by MTT dye assay. Briefly, an overnight-grown culture of the S. epidermidis strain was diluted 1:40 in LB broth. 200 μL of diluted culture was aliquoted into microtiter plate wells. Microplates were placed in a shaker-incubator set to 37° C., and 100 rpm for 24 h followed by 48 h incubation under static conditions at 37° C. The contents of wells were aspirated and discarded. Wells were washed twice with 1×PBS and the presence of biofilm in the wells at the end of 72-hour period was determined by metabolic dye-reduction assay method using MTT (3-(4,5-dimethylthiazol-2-yl)-2,5-diphenyltetrazolium bromide; Himedia). In this assay, live cells reduce the dye leading to color formation which can be read at 570 nm and the intensity of color can be correlated to number of live cells.
[…] LB supplemented with 50 μg/mL Ca^++ was used for daptomycin treatment wells. The contents of the well was aspirated out and discarded. The biofilm adhered to the wells was quantified by MTT assay as described above. In each experiment, in addition to the combination MBIC, the MBIC of each drug was also determined individually. The fractional MBIC concentrations were determined by MTT dye method as described above. The FICI and synergy was calculated.

[2] = S. epidermidis B9470 72 h preformed biofilm
[3] = S. epidermidis B9471 72 h preformed biofilm
[4] = S. epidermidis B9472 72 h preformed biofilm

CN[C@H](CC(C)C)C(=O)N[C@H]1C(=O)N[C@@H](CC(N)=O)C(=O)N[C@H]2C(=O)N[C@H]3C(=O)N[C@H](C(=O)N[C@H](C(=O)O)c4cc(O)cc(O)c4-c4cc3ccc4O)[C@H](O)c3ccc(c(Cl)c3)Oc3cc2cc(c3O[C@@H]2O[C@H](CO)[C@@H](O)[C@H](O)[C@H]2O[C@H]2C[C@](C)(N)[C@H](O)[C@H](C)O2)Oc2ccc(cc2Cl)[C@H]1O [Vancomycin, vancomycin]
MIC (S. aureus; 24 h, read-out: MIC (drug alone), S. aureus B9241 (gentamycin and ciprofloxacin resistant)): 1 µg/mL
MIC (S. aureus; ATCC29213, read-out: MIC over the strains, ATCC29213, BK1 and B9241): 1 µg/mL
MIC (S. aureus; ATCC 29213 / MSSA, 24 h, read-out: MIC (drug alone), S. aureus ATCC 29213 (MSSA)): 1 µg/mL
MIC (S. aureus; MRSA, 24 h, read-out: MIC (drug alone), S. aureus BK1 (MRSA, ciprofloxacin resistant)): 1 µg/mL
MIC (S. aureus; VRSA, 24 h, read-out: MIC (drug alone), VRSA strain VRS 1): 32 µg/mL
MIC (S. aureus; VRSA, 24 h, read-out: MIC (drug alone), VRSA strain VRS 2): 32 µg/mL
MIC (S. aureus; VRSA, 24 h, read-out: MIC (drug alone), VRSA strain VRS 3a): 32 µg/mL
MIC (S. aureus; VRSA, 24 h, read-out: MIC (drug alone), VRSA strain VRS 3b): 32 µg/mL
MIC (S. aureus; VRSA, 24 h, read-out: MIC (drug alone), VRSA strain VRS 4): 32 µg/mL
MIC (S. aureus; VRSA, 24 h, read-out: MIC (drug alone), VRSA strain VRS 10): 16 µg/mL
CFU/mL after treatment of persisters ([1]; B9377 Daptomycin persisters): 2.6 × 10^2 CFU/mL
CFU/mL after treatment of persisters ([1]; B9377 Vancomycin persisters): 4 × 10^5 CFU/mL
CFU/mL after treatment of persisters ([1]; BK18 Daptomycin persisters): 1 × 10^1 CFU/mL
CFU/mL after treatment of persisters ([1]; BK18 Vancomycin persisters): 8 × 10^5 CFU/mL
MBIC (drug alone) (S. epidermidis biofilms; [2]): 7.8 µg/mL
MBIC (drug alone) (S. epidermidis biofilms; [3]): 250 µg/mL
MBIC (drug alone) (S. epidermidis biofilms; [4]): 250 µg/mL

CCCCCCCCCC(=O)N[C@@H](Cc1c[nH]c2ccccc12)C(=O)N[C@H](CC(N)=O)C(=O)N[C@@H](CC(=O)O)C(=O)N[C@@H]1C(=O)NCC(=O)N[C@@H](CCCN)C(=O)N[C@@H](CC(=O)O)C(=O)N[C@H](C)C(=O)N[C@@H](CC(=O)O)C(=O)NCC(=O)N[C@H](CO)C(=O)N[C@@H]([C@H](C)CC(=O)O)C(=O)N[C@@H](CC(=O)c2ccccc2N)C(=O)O[C@@H]1C [Daptomycin, daptomycin]
CFU/mL after treatment of persisters ([1]; B9377 Daptomycin persisters): 1 × 10^2 CFU/mL
CFU/mL after treatment of persisters ([1]; B9377 Vancomycin persisters): 6 × 10^5 CFU/mL
CFU/mL after treatment of persisters ([1]; BK18 Daptomycin persisters): 1 × 10^1 CFU/mL
CFU/mL after treatment of persisters ([1]; BK18 Vancomycin persisters): 7.5 × 10^5 CFU/mL
MBIC (drug alone) (S. epidermidis biofilms; [2]): 15.6 µg/mL
MBIC (drug alone) (S. epidermidis biofilms; [3]): 15.6 µg/mL
MBIC (drug alone) (S. epidermidis biofilms; [4]): 7.8 µg/mL

CC(=O)NC[C@H]1CN(c2ccc(N3CCOCC3)c(F)c2)C(=O)O1 [Linezolid, linezolid]
MIC (S. aureus; 24 h, LRSA strain B9456, read-out: MIC (drug alone)): > 32 µg/mL
MIC (S. aureus; 24 h, LRSA strain B9457, read-out: MIC (drug alone)): 8 µg/mL
MBIC (drug alone) (S. epidermidis biofilms; [2]): 7.8 µg/mL
MBIC (drug alone) (S. epidermidis biofilms; [3]): 250 µg/mL
MBIC (drug alone) (S. epidermidis biofilms; [4]): 250 µg/mL

B1: P128: anti-staphylococcal chimeric protein: phage tail associated muralytic enzyme (TAME) cell wall-degrading region plus staphylococcus-specific binding region; SEQ ID NO: 1 (protein)
chain: MSLDSLKKYNGKLPKHDPSFVQPGNRHYKYQCTWYAYNRRGQLGIPVPLWGDAADWIGGAKGAGYGVGRTPKQGACVIWQRGVQGGSPQYGHVAFVEKVLDGGKKIFISEHNYATPNGYGTRTIDMSSAIGKNAQFIYDKKLETPNTGWKTNKYGTLYKSESASFTPNTDIITRTTGPFRSMPQSGVLKAGQTIHYDEVMKQDGHVWVGYTGNSGQRIYLPVRTWNKSTNTLGVLWGTIK
modifications: P128 chimera
MIC over the strains (S. aureus; ATCC29213, BK1 and B9241): 4 to 8 µg/mL
MIC (drug alone) (S. aureus; LRSA strain B9456): 2 µg/mL
MIC (drug alone) (S. aureus; LRSA strain B9457): 1 µg/mL
MIC (drug alone) (S. aureus; MRSA strain BK22): 0.45 µg/mL
MIC (drug alone) (S. aureus; S. aureus ATCC 29213 (MSSA)): 4 µg/mL
MIC (drug alone) (S. aureus; S. aureus B9241 (gentamycin and ciprofloxacin resistant)): 8 µg/mL
MIC (drug alone) (S. aureus; S. aureus BK1 (MRSA, ciprofloxacin resistant)): 4 µg/mL
MIC (drug alone) (S. aureus; S. aureus BK18): 2 µg/mL and 4 µg/mL
MIC (drug alone) (S. aureus; VRSA strain VRS 1): 1.9 µg/mL
MIC (drug alone) (S. aureus; VRSA strain VRS 2): 1.9 µg/mL
MIC (drug alone) (S. aureus; VRSA strain VRS 3a): 1.9 µg/mL
MIC (drug alone) (S. aureus; VRSA strain VRS 3b): 0.97 µg/mL
MIC (drug alone) (S. aureus; VRSA strain VRS 4): 1.9 µg/mL
MIC (drug alone) (S. aureus; VRSA strain VRS 10): 3.9 µg/mL
CFU/mL after treatment of persisters ([1]; B9377 Daptomycin persisters): 1 × 10^1 CFU/mL
CFU/mL after treatment of persisters ([1]; B9377 Vancomycin persisters): 2.5 × 10^1 CFU/mL
CFU/mL after treatment of persisters ([1]; BK18 Daptomycin persisters): 1 × 10^1 CFU/mL
CFU/mL after treatment of persisters ([1]; BK18 Vancomycin persisters): 5 × 10^1 CFU/mL
Drop in CFU ([1]; Vancomycin persisters (1×10^6 CFU/mL) of S. aureus BK18 and B9377 treated with P128): ~5 log
CFU recovered ([1]; daptomycin persisters of S. aureus treated with P128): < 10 CFU/mL
MBIC (S. epidermidis biofilms; 4 h): 7.8 µg/mL
MBIC (S. epidermidis biofilms; 6 h): 7.8 µg/mL
MBIC (S. epidermidis biofilms; 8 h): 7.8 µg/mL
MBIC (S. epidermidis biofilms; 24 h): >1000 µg/mL
MBIC (drug alone) (S. epidermidis biofilms; [2]): 32 µg/mL and 16 µg/mL
MBIC (drug alone) (S. epidermidis biofilms; [3]): 32 µg/mL
MBIC (drug alone) (S. epidermidis biofilms; [4]): 32 µg/mL
